Test results taken from patent publication US7172875B2, “Identifying inhibitors of intracellular protein fibrillization” (The Ohio State University Research Foundation, priority 2003, dated 2007).

How the values were obtained:
htau40 [1] = biological target: T1, htau40 (Homo sapiens, UniProt P10636); assay: Disaggregation of preaggregated tau followed by ThS fluorescence; assay type: biochemical
T1 construct: His-tag; made in house

α-synuclein [2] = biological target: T2, α-synuclein (Homo sapiens, UniProt P37840); assay: α-synuclein polymerization, electron microscopy; assay type: biochemical; details: 37° C.; standard polymerization conditions
T2 construct: His-tag; made in house
Procedure: (§1) α-synuclein Polymerization Assays. Under standard conditions, α-synuclein (4–70 μM) was incubated with AA or other polymerization inducers (25–3000 μM) in Assembly Buffer (10 mM HEPES, pH 7.4, 100 mM NaCl, 5 mM DTT) at 37° C. for 3–26 h, without agitation. Various inducer concentrations were prepared by serial dilution of stock solutions. Control reactions were normalized for 1:1 H2O isopropanol vehicle, which was limited to 5% in all reactions. Samples were processed for electron microscopy and fluorescence spectroscopy as described below.
Electron Microscopy. Aliquots of polymerization reactions were taken, treated with 2% glutaraldehyde (final concentration), mounted on formvar/carbon coated 300 mesh grids, and negatively stained with 2% uranyl acetate as described previously (King et al., 1999). Images were viewed in a Phillips CM 12 transmission electron microscope operated at 65 kV. Random images were captured on film at 8,000–22,000X magnification, digitized at 600 dots-per-inch resolution, and imported into Optimas 6.5.1 for quantification of filament lengths and numbers. Individual filaments were defined as any object greater than 50 nm in its long axis and were counted manually.

htau40 [3] = biological target: T1, htau40; details: synthetic filaments aggregated 3 h with AA; Ref. 12; cited from earlier work
α-synuclein [4] = biological target: T2, α-synuclein; assay: α-synuclein polymerization, Thioflavin T assay; assay type: biochemical
Procedure: as §1
Thioflavin T assay. α-synuclein (4–70 μM) was incubated in Assembly Buffer in the presence of 20 μM thioflavin T, with or without assembly inducers, in 96-well plates. Aggregation was monitored by following thioflavin T fluorescence (λex=[…]; in a Flex Station plate reader (Molecular Devices, Sunnyvale, Calif.).

htau40 [5] = biological target: T1, htau40; assay: tau aggregation assay, electron microscopy quantification of filament lengths; assay type: biochemical; details: 10 μM concentration; data not shown
Procedure: Aggregation assays. Under standard conditions, htau40 (4 μM) was incubated without agitation in Assembly Buffer (10 mM HEPES, pH 7.4, 100 mM NaCl, 5 mM dithiothreitol) at 37° C. for up to 168 h in the presence or absence of fibrillization inducer (AA, alkyl sulfate detergents, or carboxylate modified polystyrene beads). All samples incubated for more than 24 h were kept under argon in parafilm-sealed tubes. Samples were processed for assay by electron microscopy as described below.
Electron Microscopy Assays. […] Random images were viewed in a Phillips CM 12 transmission electron microscope operated at 65 kV, captured on film at 8,000–100,000-fold magnification, digitized at 600 dots-per-inch resolution, and imported into Optimas 6.5.1 for quantification of filament lengths and numbers. Individual filaments (defined as any object greater than 50 nm in its long axis with both ends visible in the field of view) were counted manually. […]
[formula] where y is total filament length (50 nm cutoff) measured at time t, yo is total filament length at time zero, t50 is time to 50% maximum fibrillization, A is the maximum total filament length at equilibrium, and kapp is the apparent first order rate constant for fibril growth in units of time^−1. […]

[6] = CMC measurements for SDS (Corrin-Harkins analysis of CMC depression); assay type: physicochemical; details: literature values
Procedure: CMC values for SDS were estimated at 37° C. using N-phenyl-1-naphthylamine as described previously, except that various concentrations of protamine, histone, α-synuclein, or htau40 were included with the samples. Detergent stock solutions were prepared in 1:1 water isopropanol.
Analytical Methods. Dependence of detergent CMC on protein concentration was fit to the empirical Corrin-Harkins equation: log CMC=−kCH(log n)+bCH (1) where n is the molar concentration of protein or salt and kCH and bCH are constants. The slope of these curves, kCH, approximates the proportion of detergent micelles that are ionized.

T1 sequence (P10636 1-441 isoform P10636-8): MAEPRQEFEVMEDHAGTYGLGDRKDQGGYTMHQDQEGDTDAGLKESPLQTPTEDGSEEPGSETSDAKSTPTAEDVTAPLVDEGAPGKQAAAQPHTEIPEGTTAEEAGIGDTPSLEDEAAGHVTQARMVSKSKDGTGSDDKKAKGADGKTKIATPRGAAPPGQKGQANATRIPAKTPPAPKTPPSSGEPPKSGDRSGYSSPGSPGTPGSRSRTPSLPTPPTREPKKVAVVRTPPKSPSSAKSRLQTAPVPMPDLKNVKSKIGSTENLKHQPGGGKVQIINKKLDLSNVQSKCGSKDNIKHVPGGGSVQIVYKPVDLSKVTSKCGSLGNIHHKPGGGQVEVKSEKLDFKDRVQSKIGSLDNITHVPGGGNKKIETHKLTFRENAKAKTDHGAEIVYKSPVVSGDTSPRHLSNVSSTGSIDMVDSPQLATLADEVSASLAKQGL

Molecule: CCCCC/C=C\C/C=C\C/C=C\C/C=C\CCCC(=O)O [AA, Arachidonic acid]
- decay slower than dilution in buffer alone (htau40 [1]; 50 μM arachidonic acid): 50 fold
- first order decay rate of ThS fluorescence after 20-fold dilution (htau40 [1]; additive in Assembly Buffer: 50 μM arachidonic acid or 2 μM htau40): 0.5 h⁻¹
- induction of α-synuclein polymerization seen by electron microscopy (α-synuclein [2]): induced
- slope constant b of exponential filament length distribution (htau40 [3]): −5.4±0.2 μm^−1

Molecule: CCCCCCCCCCCCOS(=O)(=O)[O-].[Na+] [C12H25SO4Na]
- threshold inducer concentration for induction of α-synuclein fibrillization (α-synuclein [4]; 16 h at 37° C., α-synuclein 5-30 μM): approximately 100 μM

Molecule: Heparin
- Thioflavin T signal (α-synuclein [4]; heparin 25–3000 μM saccharide monomer, both forms of heparin): < 600 counts
- induction of α-synuclein fibrillization (Thioflavin T fluorescence) (α-synuclein [4]; α-synuclein 30 μM, 16 h at 37° C.): only weakly
- induction of α-synuclein polymerization seen by electron microscopy (α-synuclein [2]): little measurable polymerization

Molecule: Phosphatidylserine
- induction of α-synuclein polymerization seen by electron microscopy (α-synuclein [2]): Abundant filaments and/or filamentous conglomerates

Molecule: phosphatidic acid
- induction of α-synuclein polymerization seen by electron microscopy (α-synuclein [2]): second in potency

Molecule: phosphatidylcholine
- induction of α-synuclein polymerization seen by electron microscopy (α-synuclein [2]): least efficient inducer

Molecule: thioflavin S [ThS]
- inhibition of tau fibrillization (htau40 [5]): not inhibitory

Molecule: uteroglobulin^4-14: hydrophobic undecapeptide of neutral net charge with two positive charges; literature values (PSFQRVIETLL; UniProt P11684 25-35, looked up, fragment)
- potency of CMC depression relative to NaCl on a molar basis [6]: 1000 fold
